This note sets out measurements from patent US20230365652A1, “Nucleic Acid Constructs, Viral Vectors and Viral Particles” (priority 2020, published 2023).

For the assay, the target named is T1, GAT-1 (Homo sapiens, UniProt P30531).
T1 construct: expressed in transfected cells; host or cells: SH-SY5Y (human neuroblastoma cell line), transient transfection with Lipofectamine 3000
The assay can be described thus: Tritiated [3H]GABA uptake assay in transfected SH-SY5Y cells. The class given is cell-based. The settings on record: CI-966 100 μM in 0.8% DMSO, 10 min at 37° C. The source says:
SH-SY5Y cells (human neuroblastoma cell line) were transfected with the constructs as described in Example 1 using Lipofectamine 3000 and following manufacturer instructions. The positive control consisted of a plasmid encoding hSLC6A1 under the control of a CAG promoter expressed together with a tagRFP fluorescent protein whilst as negative control (and a matching plasmid lacking the hSLC6A1 sequence. At 2 days post transfection, SH-SY5Y cells were attested for either ICC analysis of GABA uptake assay. Briefly, ICC analysis was performed as follow: cells were fixed with 4% paraformaldehyde and stained with the primary antibodies rabbit monoclonal anti-GAT-1 (Ref: ab177483; Abcam™, Cambridge, MA, USA) at 1:250. Cells were then stained with goat anti-rabbit secondary antibodies conjugated to Alexa Fluor 488 at 1:1,000 prior to imaging. For the GABA uptake assay, cells were previously seeded on scintillating microplates. […] Cells were then treated with a mixture of tritiated and cold GABA ([3H]GABA 8 μCi/ml and 15 μM GABA final concentrations) for 10 min at 37° C. and the reaction was stopped using 1 mM cold GABA before quantification of the radioactivity with a Microbeta instrument (Perkin Elmer).

T1 sequence (P30531 whole entry): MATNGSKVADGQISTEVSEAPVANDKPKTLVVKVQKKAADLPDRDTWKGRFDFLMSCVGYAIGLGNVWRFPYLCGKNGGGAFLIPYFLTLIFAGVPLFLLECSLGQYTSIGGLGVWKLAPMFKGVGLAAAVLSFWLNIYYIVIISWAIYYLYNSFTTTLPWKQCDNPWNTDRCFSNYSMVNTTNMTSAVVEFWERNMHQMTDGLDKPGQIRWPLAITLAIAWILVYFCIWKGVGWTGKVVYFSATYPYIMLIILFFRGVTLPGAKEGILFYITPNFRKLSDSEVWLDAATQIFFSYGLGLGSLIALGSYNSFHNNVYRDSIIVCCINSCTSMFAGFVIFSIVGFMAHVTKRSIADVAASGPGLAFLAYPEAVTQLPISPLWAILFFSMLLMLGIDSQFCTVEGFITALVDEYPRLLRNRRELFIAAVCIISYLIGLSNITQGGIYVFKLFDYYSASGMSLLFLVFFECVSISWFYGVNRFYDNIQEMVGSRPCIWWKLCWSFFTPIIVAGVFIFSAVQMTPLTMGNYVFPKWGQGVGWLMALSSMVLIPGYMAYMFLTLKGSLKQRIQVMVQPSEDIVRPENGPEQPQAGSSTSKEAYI

With `O=C(O)C1=CCCN(CCOC(c2ccc(C(F)(F)F)cc2)c2ccc(C(F)(F)F)cc2)C1` [GAT-1 inhibitor], the “uptake of [3H]GABA when cells treated with inhibitor” value is “inhibited”.
